Common to all, as to assay type: cell-based
For one experiment, the system named is tumor spheroids (UMR106). Nature of the experiment: Biodynamic spectroscopic imaging (BSI) of mitosis events in tumor spheroids, single-band thresholding (Taxol treatment). An excerpt: The mitosis phase has its own fingerprint because mitosis is one of the most dramatic events in a cell's life. However compared to the dynamic speckle from an entire tumor spheroid, the signal of the mitosis of a single cell is very weak. The statistical TDS technique is not able to show the mitosis events of single cells. On the other hand, BSI may be applied to generate a voxel based microspectrograms. In the current TDS system, the transverse and longitudinal resolution are 9 μm and 18 μm, and the typical size of UMR106 cell in tumor spheroid is about 10 um. Therefore, on the reconstructed image, each pixel contains about 4 cells. However the spectrum of a single pixel is too noisy to perform analysis, so 2×2 pixels can be preferably used as the balance point to calculate the spectra of the voxels. Thus, according to one aspect of the BSI method disclosed herein, the 3D image is reconstructed as voxels, rather than pixels, in which a voxel includes 2×2 pixels. The microspectrograms are then generated for each voxel, rather than pixel, which substantially eliminates the effect of noise in the image.
Therefore, for a single voxel, the normalized spectra from five datasets (20 mins) can be averaged together, with no risk of “missing” a biological event of the cell. By combining these normalized spectra together, the micro (voxel) spectrograms are generated. The baseline is the averaged spectrum over the entire tissue when it is only surrounded by growth medium. During the entire experimental period, each voxel corresponds to one spectrogram. A frequency vs. time fluctuation spectral response image of the tumor spheroid is constructed.
The frequency range is picked at a mid-high frequency band (0.52 Hz to 1 Hz, marked as a box in FIG. 7) and enhancement is picked as the finger print of the mitosis. The enhancement in this frequency range indicates both cell membrane undulation and cell organelle motion during mitosis. […] The prior approach discussed above referred to single-band thresholding that used the third case baseline described above as essentially a pixel-based TDS. This pixel-based TDS approach fails to isolate mitosis from other biological processes and to isolate mitosis from noise. Therefore, single-band thresholding only correctly acquires mitosis information when using the first or second case baselines described above.
Paclitaxel is a mitotic inhibitor used as an anti-cancer drug. It can stabilize microtubules so that cell division during mitosis can be interrupted. Experiments were performed using 2 concentrations of Paclitaxel: 1 μg/ml and 10 μg/ml. The tumor spheroids in these experiments were 430 μm diameter (1 μg/ml) and 410 μm diameter (10 μg/ml). The baselines were taken as described above. After 40 minutes, the original growth medium was replaced by medium with Paclitaxel. The data was collected for six hours, and the resulting macrospectrograms of the experiments are shown in FIG. 9b for 1 μg/ml and FIG. 9c for 10 μg/ml.
The thresholding used in this example is based on the single-band method using the first case baseline described above that averages the baseline over all pixels for all times. […] Each light speckle in each image represents a mitosis event. […] The mitosis events depicted in the BSI images of FIG. 10 are quantified in the graph of FIG. 11. The y-axis of the graph is the density of the voxels which are in the mitosis phase expressed as a fraction of the mitotic voxels to the total number of voxels for the underlying image. […]

Another experiment concerns DLD-1 tumor spheroid. Nature of the experiment: BSI imaging of tumor heterogeneity of drug response in DLD-1 tumor spheroid. The source says:
In a previous co-pending application Ser. No. 13/760,827, entitled “System and Method for Determining Modified States of Health of Living Tissue”, filed on Feb. 6, 2013, and published as Pub. No. 2013/0144151 (the '151 application), the entire disclosure of which is incorporated herein by reference, a method is described that uses time-frequency masks to extract feature vectors. Multiple masks are used to create feature vectors that are then used to classify a drug response. In accordance with the present disclosure, the BSI techniques described herein can use the same or similar time-frequency masks to capture different mechanisms related to the drug action, and then perform the analysis on a per-pixel basis to generate “hyperspectral” maps of the tumor response to drugs. Because the signal-to-noise of single-pixel power spectra for biodynamic spectroscopic imaging (BSI) is not as large as for tissue dynamics spectroscopy (TDS) that averages over many pixels, it is necessary to modify the time-frequency mask from that described in the '151 application. The time-frequency spectral power density is given by S(ω,T). This power spectrum typically has a power-law decay at higher frequencies, with several orders of magnitude in vertical dynamic range. […]

Experiment [1] deals with ex vivo biopsy sample of canine multicentric B-cell lymphoma. The experiment in a line: BSI of drug response of ex vivo biopsy sample. The settings on record: two-color pixel map. An excerpt:
An additional example of BSI is shown in FIG. 18 for an ex vivo biopsy sample of canine multicentric B-cell lymphoma. […] This signature is coded in green in the BSI image. The other spectral signature had low-frequency enhancement and high-frequency suppression, which is coded as red in the BSI image. […] This ex vivo biopsy is responding to the anticancer drug doxorubicin.

For the molecule `CC(=O)O[C@H]1C(=O)[C@@]2(C)[C@H]([C@H](OC(=O)c3ccccc3)[C@]3(O)C[C@H](OC(=O)[C@H](O)[C@@H](NC(=O)c4ccccc4)c4ccccc4)C(C)=C1C3(C)C)[C@]1(OC(C)=O)CO[C@@H]1C[C@@H]2O` [Paclitaxel], the “mitotic events, fraction of mitotic voxels to total voxels over time (FIG. 11)” value in the experiment on tumor spheroids (UMR106) (1 μg/ml, 430 μm diameter spheroid, compared with negative controls) was “fewer mitotic events and decayed faster”; in the experiment with tumor spheroids (UMR106) (410 μm diameter spheroid), “decayed the fastest”. Besides, the “mitosis remaining after drug application (FIG. 11)” value with tumor spheroids (UMR106) (1 μg/ml, six hours after applying) is reported as “still slight mitosis”; in the experiment with tumor spheroids (UMR106) (two hours after applying the drug) it was “almost no mitosis at all”. Further, the “mitosis activity inside the tumor spheroids (BSI images, FIG. 10)” value with tumor spheroids (UMR106) (Taxol treated vs untreated, single-band threshold 0.52-1.0 Hz, nearly six hours) was “significantly reduced”.

In the case of `CNC(=O)c1cc(Oc2ccc(NC(=O)Nc3ccc(Cl)c(C(F)(F)F)c3)cc2)ccn1` [Sorafenib], in the experiment with DLD-1 tumor spheroid (BSI image and classification map), the “homogeneity of the response across the specimen (FIGS. 16c, 17)” value is recorded as “majority of the specimen is unaffected or only slightly affected”. Besides, the “BSI spectral response to drug, spatial distribution (FIG. 16c)” value in the experiment on DLD-1 tumor spheroid (spheroid approximately 600 microns in diameter, periphery vs interior) is “highest magnitude in the proliferating shell, with low (dark) response internal to the tumor”.

Turning to `COc1cccc2c1C(=O)c1c(O)c3c(c(O)c1C2=O)C[C@@](O)(C(=O)CO)C[C@@H]3O[C@H]1C[C@H](N)[C@H](O)[C@H](C)O1` [doxorubicin], in experiment [1], the “BSI spectral responses of tissue to drug (FIG. 18)” value is “two very different spectral responses”.

Source of the values: patent US20150124259A1, “Method For Biodynamic Spectroscope Imaging” (Purdue Research Foundation, priority 2013, published 2015).
